From PubChem BioAssay (NCI)
“And” between values parts separate entries of the source, which are not always exact repeats. Equal values may be shown once.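 Tested at 5 concentrations; 48 h exposure; 96-well plates; endpoints linearly interpolated, else capped at highest concentration. At the GI50, growth is halved. TGI is the concentration that stops growth completely.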

Experiments:
Experiment in all cases: NCI anticancer screen, dose series, 48 h
A498 renal = test system: A498 renal
HOP-92 NSCLC = test system: HOP-92 NSCLC
CAKI-1 renal = test system: CAKI-1 renal
U251 CNS = test system: U251 CNS
SK-MEL-2 melanoma = test system: SK-MEL-2 melanoma
HCC-2998 colon = test system: HCC-2998 colon
SF-268 CNS = test system: SF-268 CNS
BT-549 breast = test system: BT-549 breast
MCF7 breast = test system: MCF7 breast
IGROV1 ovarian = test system: IGROV1 ovarian

SMILES	GI50 (A498 renal)	TGI (A498 renal)	GI50 (HOP-92 NSCLC)	TGI (HOP-92 NSCLC)	GI50 (CAKI-1 renal)	TGI (CAKI-1 renal)	GI50 (U251 CNS)	TGI (U251 CNS)	GI50 (SK-MEL-2 melanoma)	TGI (SK-MEL-2 melanoma)	GI50 (HCC-2998 colon)	TGI (HCC-2998 colon)	GI50 (SF-268 CNS)	TGI (SF-268 CNS)	GI50 (BT-549 breast)	TGI (BT-549 breast)	GI50 (MCF7 breast)	TGI (MCF7 breast)	GI50 (IGROV1 ovarian)	TGI (IGROV1 ovarian)
O=C1NC(=NCc2ccccc2)S/C1=C\c1ccc2ncccc2c1	> 25 µM	> 25 µM	> 25 µM	> 25 µM	> 25 µM	> 25 µM	> 25 µM	> 25 µM	> 25 µM	> 25 µM	> 25 µM	> 25 µM	> 25 µM	> 25 µM	> 25 µM	> 25 µM	> 25 µM	> 25 µM	> 25 µM	> 25 µM
Cc1cc(Nc2ccc(C)c(Cl)c2)n2nc(C(F)(F)F)nc2n1	8.61 µM	53.5 µM	18 µM	59.4 µM	14.6 µM	34.7 µM	23.5 µM	> 100 µM	22.9 µM	55.4 µM	40.8 µM	> 100 µM	28.3 µM	> 100 µM	22.9 µM	57.4 µM	22.7 µM	> 100 µM	26.7 µM	> 100 µM
O=[N+]([O-])c1cc([N+](=O)[O-])c(C(F)(F)F)cc1NN=C(c1ccc(O)cc1)c1ccc(O)cc1	3.18 µM	12.7 µM	3.05 µM	18.8 µM	3.34 µM	15.3 µM	2.92 µM	11.7 µM	2.56 µM	5.99 µM	3.2 µM	8.58 µM	2.63 µM	7.66 µM	5 µM	42.8 µM	2.63 µM	7.73 µM	3.79 µM	14.4 µM
CC(C)[C@@H]1NC(=O)[C@]2(C)CSC(=N2)c2ccnc(c2)CNC(=O)C[C@@H](/C=C/CCS)OC1=O	0.0323 µM	0.254 µM	0.363 µM	2.81 µM	2.86 µM	15.6 µM	0.107 µM	0.73 µM	0.0842 µM	0.516 µM	0.173 µM	0.869 µM	0.421 µM	> 100 µM	0.718 µM	> 100 µM	0.708 µM	> 100 µM	0.159 µM	2.43 µM
C=C(C)C12OC1[C@@]1(C)C(=CC2=O)CCC(O)[C@@H]1C (stereo not given in full)	–	62.5 µM	–	93.9 µM	–	3 µM	–	14.4 µM	–	20.1 µM	–	17.6 µM	–	14.7 µM	–	50.8 µM	–	> 100 µM	–	13.3 µM
COc1cc(-c2nn(-c3cccc(NC(=O)c4ccccc4)c3)cc2-c2ccncc2)ccc1Cl	0.197 µM	1.35 µM	0.269 µM	2.06 µM	0.836 µM	> 40.5 µM	0.592 µM	24.4 µM	0.326 µM	2.1 µM	2.13 µM	33.6 µM	0.596 µM	> 54.8 µM	0.98 µM	> 100 µM	0.344 µM	> 100 µM	0.572 µM	> 100 µM
NC(=S)N/N=C1\c2cc(Cl)ccc2-c2c1cc(Cl)cc2[N+](=O)[O-]	1.38 µM	8.57 µM	2.22 µM	13.1 µM	7.21 µM	> 100 µM	2.99 µM	14.9 µM	7.96 µM	89.8 µM	12.1 µM	> 100 µM	9.79 µM	> 100 µM	3.41 µM	36.7 µM	1.98 µM	16.8 µM	5.68 µM	> 100 µM
c1ccc(Nc2ncc(-c3ccccc3)o2)cc1	> 24 µM	> 25 µM	> 25 µM	> 25 µM	17.8 µM	> 25 µM	> 25 µM	> 25 µM	> 25 µM	> 25 µM	> 25 µM	> 25 µM	> 25 µM	> 25 µM	> 25 µM	> 25 µM	12.4 µM	> 25 µM	> 22 µM	> 25 µM
CCNC(=O)C#Cc1ccc2c(C(=Nc3ccc(CN(C)C)cc3)c3ccccc3)c(O)[nH]c2c1	0.0274 µM	0.179 µM	0.00812 µM	0.0532 µM	0.119 µM	> 9.05 µM	0.376 µM	2.9 µM	0.0323 µM	0.228 µM	0.106 µM	0.696 µM	1.35 µM	> 9.48 µM	1.51 µM	> 10 µM	0.0458 µM	4.59 µM	0.0511 µM	> 3.29 µM
C#Cc1cccc(Nc2nc3cc([N+](=O)[O-])ccc3nc2Nc2ccc(O)cc2)c1	3.08 µM	13.7 µM	1.79 µM	3.6 µM	2.19 µM	5.04 µM	1.8 µM	3.71 µM	2.07 µM	4.36 µM	1.75 µM	3.45 µM	1.56 µM	3.45 µM	1.71 µM	3.7 µM	2.2 µM	6.11 µM	1.78 µM	4.37 µM
C=CC(=O)Nc1cc(Nc2nccc(-c3cn(C)c4ccccc34)n2)c(OC)cc1N(C)CCN(C)C	1.11 µM and 1.48 µM	3.25 µM and 4.12 µM	0.793 µM and 0.416 µM	8.39 µM and 3.49 µM	0.343 µM and 0.916 µM	6.75 µM and 2.49 µM	1.63 µM and 1.71 µM	3.26 µM and 3.35 µM	2.08 µM and 1.94 µM	4.04 µM and 3.87 µM	1.56 µM and 1.48 µM	3.37 µM and 2.98 µM	1.95 µM and 1.87 µM	7.02 µM and > 10 µM	3.52 µM and 2.95 µM	12.8 µM and > 10 µM	1.5 µM and 1.48 µM	3.47 µM and 3.6 µM	1.14 µM and 0.407 µM	7.58 µM and 2.68 µM
COc1ccc(Cn2c(Br)c3c(c2Br)-c2nc(N)sc2CC3)cc1	4.66 µM	17.3 µM	2.24 µM	14 µM	2.9 µM	10.4 µM	5.15 µM	19 µM	5.56 µM	19.9 µM	13.3 µM	28.2 µM	6.15 µM	46.6 µM	9.16 µM	30.4 µM	3.58 µM	17.6 µM	11.6 µM	39.2 µM
